ChEMBL document CHEMBL1821669, “Cyclic depsipeptides, grassypeptolides D and E and Ibu-epidemethoxylyngbyastatin 3, from a Red Sea Leptolyngbya cyanobacterium” (J Nat Prod, 2011)
Numbered stars: 1 amine (or outer) side, 2 acyl side, 3 side chain; on linkers, the order of the positions; unused ones are H or OH. Square brackets hold non-standard residues; d marks the D form. Peptide text beside a SMILES is read from it. X2 = CCC[C@@H](N[*:1])[C@H](C)C(=O)O[C@H](C(=O)[*:2])[C@@H](C)CC; X3 = CC[C@H](C)[C@H](OC(=O)[C@@H](C)[C@@H](CC)N[*:1])C(=O)[*:2]; dAbuψ(thiazoline)Cys = CC[C@@H](N[*:1])C1=N[C@H](C(=O)[*:2])CS1; X4 = CN([C@@H](Cc1ccccc1)C1=N[C@H](C(=O)[*:2])CS1)[*:1]; dβ3hAla(2R-Me) = C[C@@H](N[*:1])[C@@H](C)C(=O)[*:2]; X1 = C[C@H](N[*:1])C(=O)C(C)(C)C(=O)[*:2]; d(aThr) = C[C@@H](O)[C@@H](N)C(=O)O; NMeF = CN[C@@H](Cc1ccccc1)C(=O)O; PhLac = O=C(O)[C@@H](O)Cc1ccccc1; NMeL = CN[C@@H](CC(C)C)C(=O)O; dNMeL = CN[C@H](CC(C)C)C(=O)O; NMeV = CN[C@H](C(=O)O)C(C)C; NMeA = CN[C@@H](C)C(=O)O

How the values were obtained:
[1] = Cytotoxicity against mouse Neuro2a cells after 48 hrs by MTT assay; assay type: functional, cell-based; conditions: N2a
[2] = tested on: HeLa; experiment: Cytotoxicity against human HeLa cells after 48 hrs by MTT assay; assay type: functional, cell-based

| Structure (SMILES) | IC50 [1] [nM] | IC50 [2] [nM] |
| --- | --- | --- |
| CCC[C@H]1NC(=O)[C@H](C)N(C)C(=O)C(C)(C)C(=O)[C@H](C)NC(=O)[C@H](Cc2ccccc2)N(C)C(=O)[C@H](C(C)C)N(C)C(=O)CNC(=O)[C@H](CC(C)C)N(C)C(=O)CNC(=O)[C@H]([C@@H](C)CC)OC(=O)[C@H]1C (cyclo(G[NMeL]G[NMeV][NMeF][X1][NMeA][X2])) | > 10000 | – |
| CC[C@H](C)[C@@H]1OC(=O)[C@@H](C)[C@@H](CC)NC(=O)[C@H](C)N(C)C(=O)C(C)(C)C(=O)[C@H](C)NC(=O)[C@H](Cc2ccccc2)N(C)C(=O)[C@H](C(C)C)N(C)C(=O)CNC(=O)[C@H](CC(C)C)N(C)C(=O)CNC1=O [DOLASTATIN 12] (cyclo(G[NMeL]G[NMeV][NMeF][X1][NMeA][X3])) | > 1000 | – |
| CC[C@H]1NC(=O)[C@@H]2CSC(=N2)[C@H](Cc2ccccc2)N(C)C(=O)[C@@H]2CCCN2C(=O)[C@H](C(C)C)N(C)C(=O)[C@H](Cc2ccccc2)OC(=O)[C@H](C)[C@@H](C)NC(=O)[C@@H]([C@@H](C)O)NC(=O)[C@@H](CC(C)C)N(C)C(=O)[C@@H]2CSC1=N2 [GRASSYPEPTOLIDE C] (cyclo([NMeV]P[X4][dAbuψ(thiazoline)Cys][dNMeL][d(aThr)][dβ3hAla(2R-Me)][PhLac])) | – | 45 |
| CC[C@H]1NC(=O)[C@@]2(C)CSC(=N2)[C@H](Cc2ccccc2)N(C)C(=O)[C@@H]2CCCN2C(=O)[C@H](C(C)C)N(C)C(=O)[C@H](Cc2ccccc2)OC(=O)[C@H](C)[C@@H](C)NC(=O)[C@@H]([C@@H](C)O)NC(=O)[C@@H](CC(C)C)N(C)C(=O)[C@@H]2CSC1=N2 [GRASSYPEPTOLIDE D] | 599 | 335 |
| CC[C@H]1NC(=O)[C@@]2(C)CSC(=N2)[C@H](Cc2ccccc2)N(C)C(=O)[C@@H]2CCCN2C(=O)[C@H](C(C)C)N(C)C(=O)[C@H](Cc2ccccc2)OC(=O)[C@H](C)[C@@H](C)NC(=O)[C@H]([C@@H](C)O)NC(=O)[C@H](CC(C)C)N(C)C(=O)[C@@H]2CSC1=N2 [GRASSYPEPTOLIDE E] | 407 | 192 |
